Broadly, the pIC50 is the negative decadic logarithm of the IC50, by convention in mol/L.

One assay relates to glutamate uptake. As to conditions: astrocyte-neuron co-culture model, cited from earlier work.
The next assay relates to xCT. Nature of the assay: Immunoblot xCT in mPFC-IL, mPFC-PL, NAc-core, NAc-shell (section B). The format is in vivo, Male and female alcohol-preferring (P) rats. As to conditions: 100 mg/kg i.p. 5 days. Here is the method: After 24 hours of receiving the last injection, rats were euthanized by CO2 inhalation followed by decapitation with a guillotine. Brains were harvested and immediately frozen on dry ice and stored at −80° C. Cryostat (Leica) was used to isolate the mPFC subregions (mPFC-IL and mPFC-PL), and subregions of the NAc (NAc-core and NAc-shell). Brains were micro-punctured using the stereotaxic coordinates following the Rat Brain Atlas. The isolated brain regions were stored at −80° C. for subsequent protein detection using Western Blot assay.
Immunoblot assays were performed to determine the expression of GLT-1, xCT and β-tubulin in mPFC-IL, mPFC-PL, NAc-core, and NAc-shell of all groups as described previously. Briefly, brain samples were homogenized in lysis buffer supplemented with protease inhibitor and total protein was quantified using protein assay (Bio-Rad, Hercules, CA, USA). Equal amount of the samples was loaded on polyacrylamide gel (10-20%).
Subsequently, proteins were transferred on a PVDF membrane and blocked with 5% milk in Tris-buffered saline Tween-20 (1×TBST) for 30 minutes at room temperature. Membranes were then incubated overnight at 4° C. with one of the following antibodies: rabbit anti-GLT-1 (1:1000, Abcam, AB41621), and/or rabbit anti-xCT (1:1000, Abcam, AB175186). Mouse anti-β-tubulin (1:1000; Cell Signaling D71G5) was used as a loading control antibody. On the following day, membranes were washed five times with 1×TBST followed by incubation with appropriate secondary antibody (1:4000) for 60 minutes at room temperature. Chemiluminescent reagents (Super Signal West Pico, Pierce Inc.) were used to detect proteins using a ChemiDoc imaging system (BioRad, USA).
GLT-1 and xCT expression were normalized against β-tubulin, a control loading protein. Imaging System and ImageJ software version 1.53a were used to quantify and analyze the expression of GLT-1 and xCT in the subregions of the mPFC and NAc. Data from water-control group were represented as 100% and all other values were expressed relative to this control to evaluate the changes in protein expression.
The ratios for treated animals in the ethanol/saline and ethanol/MC-100093 groups were normalized to the mean ratios for the control group (water/saline group). The control ratio was set at 100, and the results from each of the treated groups were expressed as a percentage relative to the water/saline group value of 100%. We normalized the ethanol/saline and ethanol/MC-100093 groups data to water/saline group to reduce any differences of contrast with Western blots for each set of groups (control/water/saline, ethanol/saline, and ethanol/MC-100093 groups).
All statistical analyses were conducted using GraphPad Prism (10). Two-way (mixed) ANOVA followed by Bonferroni multiple comparison post-hoc test was performed to analyze daily ethanol intake, average daily water intake and body weight. One-way ANOVA followed by Newman-Keuls post hoc tests were used to analyze Western blot data. All statistical analyses data were reported as a p<0.05 of significance.

The test system of a further assay is TNF-α. Nature of the assay: Western blot TNF-α in subregions of mPFC and NAc. The assay is classed as in vivo, Male P rats. The method, then: (§1) All P rats were euthanized by CO2 inhalation and decapitated with a guillotine 24 hours after the final i.p. injection was administered on Day 6 of Week 6. Brains were removed and immediately frozen on dry ice and stored at −80° C. The mPFC subregions (infralimbic cortex and prelimbic cortex) and NAc subregions (core and shell) were dissected using a cryostat machine kept at −20° C. Surgical blades were used to dissect all brain regions following visualized landmarks using the stereotaxic coordinates provided by Paxinos and colleague's rat brain stereotactic atlas. All brain regions were stored in −80° C. Western Blot analyses.
(§2) Western blot was performed to determine the expression of BDNF, TNF-α, RAGE, HMGβ-1, and β-tubulin in the subregions of mPFC and NAc as preformed in previous studies.
(§3) Brain samples were lysed with a lysing buffer containing protease inhibitors. The amount of protein in each sample was quantified using a detergent compatible protein assay (Bio-Rad, Hercules, CA, USA). Polyacrylamide gels (10%) were loaded with the lysate mixture, and proteins were separated using gel electrophoresis for 1 hour. Proteins were then transferred from the gels onto Polyvinylidene difluoride (PVDF) membranes (BioRad). After transfer, membranes were incubated for 30 minutes in a mixture of nonfat milk in 1×Tris-buffered saline with Tween-20 (TBST) at room temperature. Membranes were then incubated at 4° C. for 24 hours with primary antibodies: anti-rabbit BDNF (1:1000, Abeam, #ab108319), anti-rabbit TNF-α (1:500, Abeam, #ab9739), anti-rabbit HMGβ-1 (1:500, Abeam, #ab18256), and anti-rabbit RAGE (1:1000, Abeam, #ab37407). Anti-mouse-β-tubulin (1:1000, Cell Signaling Technology, #D71G9) was used as a loading control antibody. After incubating for 24 hours, secondary antibody such as donkey anti-rabbit (1:4000, Invitrogen, #31458) or anti-mouse (1:4000, Cell Signaling, #7076S) was added to the membrane for 1 hour at room temperature. The membranes were then washed with 1×TBST three times for 5 minutes each and then dried. Membranes were then incubated in chemiluminescent reagents (Super Signal West Pico, Pierce Inc.) for 2 minutes. Blot images were developed using ChemiDoc. Imaging System and ImageJ software version 1.53a were used to quantify and analyze the expression of BDNF, TNF-α, RAGE, HMGβ-1, and β-tubulin.
(§4) The data for the water/saline control group were expressed as 100% based on the values corresponding to the ethanol/saline and ethanol/MC-100093 groups for each set of blotting. Thus, the expression of selected proteins for each group (ethanol/saline group or ethanol/MC-100093 group) was calculated relative to the water/saline control group being set to 100%.
(§5) Statistical analyses were performed using GraphPad Prism Version 10. Two-way repeated measures ANOVA followed by Bonferroni post-hoc tests were used to compare water and ethanol intake, and body weight, amongst water group, ethanol/saline group and ethanol/MC-100093 group. A one-way ANOVA test was performed to compare the expression of the studied proteins in selected brain regions in water/saline, ethanol/saline and ethanol/MC-100093 groups. Statistical significance was determined by a p-value of or less than 0.05.
Background: Immunoblotting shows a protein as a band on a membrane.

The subject of another assay is HMGβ-1. Nature of the assay: Western blot HMGβ-1 in subregions of mPFC and NAc. The assay is classed as in vivo, Male P rats. Here is the method: as §1, §2, §3, §4, §5
Where [1] appears, read: female P rats, vs ethanol-saline and water-saline.
Setting [2] is: 100 mg/kg i.p., compared to ethanol/saline group.
The mark [3] stands for this setting: post-treatment with MC-100093 100 mg/kg i.p., 100 mg/kg.

pIC50: −log10 of the molar value. Entries after “also recorded” stand apart in the source; their conditions may differ.

On to `C[C@@H](O)[C@H]1C(=O)N[C@@H]1[C@@H](C)C(=O)N1CCN(C)CC1` [MC-100093], for which the “Enhancement of glutamate uptake” value in the assay with glutamate uptake is recorded as 23.5%. Besides, the negative logarithm of the IC50 (pIC50) in the assay with glutamate uptake (read-out: IC50 (enhancement of glutamate uptake)) was 7.00. For the same compound, in the assay on xCT (setting [1]), the “xCT expression in the NAc-core” value was “significant upregulation of xCT expression”, the “xCT expression in the NAc-shell” value is reported as “significant upregulation in the expression of xCT”, the “xCT expression in the mPFC-IL” value is listed as “significant upregulation in the expression of xCT” and the “xCT expression in the mPFC-PL” value is recorded as “significant upregulation of the expression of xCT”. The “xCT expression in mPFC and NAc subregions (summary)” value in the assay on xCT (female and male P rats, vs ethanol-saline groups, 100 mg/kg) was “upregulated GLT-1 and xCT expression in mPFC and NAc subregions; also recorded: upregulated xCT expression in both the NAc and the mPFC subregions in male and female P rats; also recorded: increasing GLT-1 and xCT expression in the mPFC and NAc subregions”. In the assay on xCT (male P rats), the “xCT expression in the NAc-core” value was “significantly increased the expression of xCT”, the “xCT expression in the NAc-shell” value was “increased the expression of xCT”, the “xCT expression in the mPFC-IL” value is reported as “significantly increased the expression of xCT” and the “xCT expression in the mPFC-PL” value is listed as “significantly increased the expression of xCT”. In the assay on TNF-α (setting [2]), the “TNF-α expression in the IL” value is “decreased significantly TNF-α expression”, the “TNF-α expression in the NAc core” value is “decreased significantly TNF-α expression”, the “TNF-α expression in the NAc shell” value was “decreased TNF-α expression” and the “TNF-α expression in the PL” value is recorded as “significantly decreased the expression of TNF-α”. Moreover, the “TNF-α expression in IL, PL, NAc core and NAc shell (summary)” value with TNF-α (setting [3]) was “normalized TNF-α expression in all these brain regions; also recorded: attenuated ethanol-induced upregulation of pro-inflammatory cytokines such as TNF-a and HMGB1”. Moreover, the “HMGβ-1 expression in the NAc shell” value with HMGβ-1 (100 mg/kg i.p., compared to ethanol group) is recorded as “decreased the expression of HMGβ-1”. In the assay with HMGβ-1 (setting [2]), the “HMGβ-1 expression in the IL” value is “decreased HMGβ-1 expression”, the “HMGβ-1 expression in the NAc core” value is reported as “decreased the expression of HMGβ-1” and the “HMGβ-1 expression in the PL” value is “decreased the expression of HMGβ-1”. Further, in the assay with HMGβ-1 (setting [3]), the “HMGβ-1 expression in IL, PL, NAc core and NAc shell (summary)” value was “normalized HMGβ-1 expression in all these brain regions; also recorded: attenuated ethanol-induced upregulation of pro-inflammatory cytokines such as TNF-a and HMGB1”.

These data come from patent US20250057808A1, “COMPOSITION COMPRISING BETA LACTAM FOR TREATING ALCOHOL DEPENDENCE AND ALCOHOL ASSOCIATED DISEASES OR CONDITIONS” (Temple University of the Commonwealth System of Higher …, priority 2023, published 2025).
